These results are taken from patent US11603380B2 (Centre national de la recherche scientifique, priority 2018, dated 2023).

Data set [1] relates to HSV-2 (G). In words: microbe, parasite or virus in culture. Type of data set: cell-based, herpes simplex virus 2. Conditions: Human alphaherpesvirus 2, HEL, read-out: EC50 HSV-2 (G).
For data set [2], the system named is Vaccinia Virus. The experiment in a line: microbe, parasite or virus in culture. The format is cell-based. Conditions: Orthopoxvirus vaccinia, HEL, read-out: EC50 Vaccinia Virus.
Data set [3] concerns Feline Herpes Virus. In words: organism not typed. The format is cell-based. The note with it: read-out: EC50 Feline Herpes Virus.
For data set [4], the system named is HEL cell cultures. Conditions: human.
Data set [5] is described as follows: in vitro. The note with it: human.
For data set [6], the system named is human cytomegalovirus (HCMV) (AD-169). In words: microbe, parasite or virus in culture. The format is cell-based. Conditions: Human betaherpesvirus 5, AD169, HEL, read-out: EC50 HCMV (AD-169).
Data set [7] has as its system human cytomegalovirus (HCMV) (Davis). The experiment in a line: microbe, parasite or virus in culture. The format is cell-based. Conditions: Human betaherpesvirus 5, HEL, read-out: EC50 HCMV (Davis).
Data set [8] has as its system varicella-zoster virus (VZV) TK+ (OKA). In words: microbe, parasite or virus in culture. The format is cell-based. The note with it: Human alphaherpesvirus 3, HEL, read-out: EC50 VZV TK+ (OKA).
Data set [9] concerns varicella-zoster virus (VZV) TK− (07/1). In words: microbe, parasite or virus in culture. Type of data set: cell-based. Conditions: Human alphaherpesvirus 3, HEL, read-out: EC50 VZV TK− (07/1).
Data set [10] has as its system herpes simplex virus 1 (HSV-1) (KOS). In words: microbe, parasite or virus in culture. The note with it: Human alphaherpesvirus 1, HEL, read-out: EC50 HSV-1 (KOS). Type of data set: cell-based.
For data set [11], the system named is HSV-1 (KOS ACV) TK−. The experiment in a line: microbe, parasite or virus in culture. The note with it: Human alphaherpesvirus 1, read-out: EC50 HSV-1 (KOS ACV) TK−. The format is cell-based, herpes simplex virus 1.

Take `Nc1nc(O)c2ncn(COC(CO)CO)c2n1` [Ganciclovir, reference compound]: the EC50 in [1] is 0.06 µM; in data set [2], over 100 µM; in data set [3] it was 1.4 µM. In addition, the “Cytotoxicity MCC” value in data set [4] was over 100 µM. Also, the CC50 in data set [5] (Cytotoxicity CC50) is over 100 µM.

With `O=c1[nH]c(=O)n([C@H]2C[C@H](O)[C@@H](CO)O2)cc1/C=C/Br` [Brivudine, reference compound], the EC50 in [6] was found to be 0.08 µM; in [7], 250 µM; in [8] it was 0.01 µM; in data set [9] it was 117 µM; in data set [2] it was 22 µM. Besides, the “Cytotoxicity MCC” value in [4] was over 100 µM. Moreover, the CC50 in data set [5] is 339 µM; in data set [5] (Cytotoxicity CC50), over 100 µM.

With `CC(C)(C)C(=O)OCOP(=O)(CC/C=C/COc1cc(N)nc(N)n1)OCOC(=O)C(C)(C)C` [Compound (10), [[(E)-5-(2,6-diaminopyrimidin-4-yl)oxypent-3-enyl]-(2,2-dimethyl-propanoyloxymethoxy)phosphoryl]oxymethyl 2,2-dimethylpropanoate], the EC50 in data set [6] is over 100 µM; in data set [7], over 100 µM; in data set [8] it was 34.2 µM; in data set [9] it was 24.5 µM; in [10] it was over 100 µM; in [1], over 100 µM. For the same compound, the EC50 in data set [11], in data set [2] and in [3] was over 100 µM in each case. For the same compound, the “Cytotoxicity MCC” value in [4] worked out at 100 µM.

`CC(=O)OC/C(=C\CP(=O)(OCOC(=O)OC(C)C)OCOC(=O)OC(C)C)COc1cc(N)nc(N)n1` [Compound (6), [(Z)-4-[bis(isopropoxycarbonyloxymethoxy)phosphoryl]-2-[(2,6-diaminopyrimidin-4-yl)oxymethyl]but-2-enyl]acetate]: the EC50 in data set [6] is over 20 µM; in [7], 49.7 µM; in [8], 0.089 µM; in data set [9], 0.22 µM; in [10], 0.6 ± 0.2 µM; in [1], 0.35 ± 0.05 µM. The EC50 in data set [11] is 0.4 µM; in [2], 4.1 ± 2.4 µM; in [3], over 100 µM. The “Cytotoxicity MCC” value in data set [4] was over 100 µM. The CC50 at 3 days in data set [5] turned out to be 15.4 µM.

Regarding `C/C(=C\CP(=O)(OCOC(=O)C(C)(C)C)OCOC(=O)C(C)(C)C)COc1cc(N)nc(N)n1` [Compound (11), [[(E)-4-(2,6-diaminopyrimidin-4-yl)oxy-3-methyl-but-2-enyl]-(2,2-dimethyl-propanoyloxymethoxy)phosphoryl]oxymethyl 2,2-dimethylpropanoate], the EC50 was over 100 µM in [6]; over 100 µM in data set [7]; 51.5 µM in data set [8]; 49.3 µM in data set [9]; over 100 µM in [10]; over 100 µM in data set [1]. The EC50 is 51.5 µM in data set [11], 49.3 µM in data set [2] and over 100 µM in [3]. Also, the “Cytotoxicity MCC” value in [4] is over 100 µM.

Turning to `CC(C)(C)C(=O)OCOP(=O)(/C=C/COc1cc(N)nc(N)n1)OCOC(=O)C(C)(C)C` [Compound (9), [[(E)-3-(2,6-diaminopyrimidin-4-yl)oxyprop-1-enyl]-(2,2-dimethyl-propanoyloxymethoxy)phosphoryl]oxymethyl 2,2-dimethylpropanoate], the EC50 in data set [6] was over 100 µM; in [7], over 100 µM; in data set [8] it was 76.5 µM; in data set [9], over 100 µM; in data set [10], over 100 µM; in data set [1], over 100 µM. Moreover, the EC50 in data set [11], in data set [2] and in [3] was over 100 µM in each case. In data set [4], the “Cytotoxicity MCC” value was over 100 µM.

Consider `Nc1nc2c(ncn2COCCO)c(=O)[nH]1` [Acyclovir, reference compound], for which the EC50 in data set [6] is 0.4 µM; in data set [7] it was 250 µM; in data set [2] it was over 100 µM. Besides, the CC50 in data set [5] was 134 ± 10 µM; in data set [5] (Cytotoxicity CC50) it was over 100 µM.
